# Experiments:
# mammary tumors = experiment: Bioassay of mammary cancer prevention (MNU-induced mammary carcinogenesis); assay type: in vivo, Female Sprague-Dawley rats; details: CLA 0.05-0.37% (treatments A-D); vaccenic acid 0.73-1.6% (treatments E-G)
# Method: (§1) Protocol of animal treatment. Female Sprague-Dawley rats were purchased from Charles River Breeding Laboratories (Raleigh, N.C.) at 45 days of age and all subsequent procedures were approved by Roswell Park Cancer Institute Animal Care and Use Committee. Rats were fed the AIN-76 basal diet for 1 week to acclimatize them to the powdered diet. All animals were injected with a single dose of methylnitrosourea (MNU: 50 mg/kg body weight) intraperitoneally at 52 days of age for the induction of mammary tumors. Immediately after MNU administration, a total of 210 rats were divided into 7 groups of 30 each and maintained on different dietary treatments for the following 24 weeks. Throughout this period, rats were palpated weekly to determine the appearance, size, and location of mammary tumors. The experiment was terminated at 24 weeks after MNU administration. All tumors were excised and fixed for histological examination and only confirmed carcinomas are reported in data summaries. Randomly-selected subsets of nine rats from each treatment were necropsied. The tumor-free inguinal mammary fat pad, a portion of the liver, and plasma were retrieved. […]
# (§2) Statistical analyses. Fatty acid composition data were analyzed statistically by the General Linear Model procedure of SAS (SAS Inc., Cary, N.C.). […]
# [1] = Fatty acid analysis of liver, plasma and mammary fat pad lipids (Example 1); assay type: in vivo, Female Sprague-Dawley rats
# Method: as §1, with “administration.” for “administration. All tumors were excised and fixed for histological examination and only confirmed carcinomas are reported in data summaries. Randomly-selected subsets of nine rats from each treatment were necropsied. The tumor-free inguinal mammary fat pad, a portion of the liver, and plasma were retrieved.”
# Fatty acid analysis. […] However, because these typically yielded far less lipid, quantities of all reagents for methylation were adjusted to compensate for the reduced yield.
# Fatty acid methyl esters were analyzed by gas chromatography (Hewlett Packard GC system 6890+with flame ionization detector) using a CP-Sil 88 capillary column (100 m×0.25 mm i.d. with 0.2 μm film thickness; Varian Inc.). […]
# as §2
Tissue and plasma concentrations of vaccenic acid with increasing intake (in words) ([1]; FIG. 1),"Content of cis-9, trans-11 CLA within each tissue with increasing supply of vaccenic acid (in words) ([1]; liver, plasma, mammary fat pad, FIG. 3)",Compound,Effect of increasing dietary intake on tumor incidence (in words) (mammary tumors)
–,–,"CCCCCC/C=C/C=C\CCCCCCCC(=O)O [cis-9, trans-11 CLA, cis-9, trans-11 octadecadienoic acid, reference compound]",the decrease was not statistically significant
increased,linearly increased,"CCCCCC/C=C/CCCCCCCCCC(=O)O [vaccenic acid, trans-11 octadecenoic acid]",distinct inhibitory response to vaccenic acid which was dose-dependent

# Source: US20050004218A1, “Vaccenic acid” (priority 2003, published 2005)
